{
  "source": "patent US20220112187A1",
  "about": "“PYRAZOLOPYRIDINE AMINE COMPOUNDS FOR THE TREATMENT OF AUTOIMMUNE DISEASE” (Hoffmann-La Roche Inc., priority 2018, published 2022)",
  "data": [
    {"target": "T1, human TLR7 (Homo sapiens, UniProt Q9NYK1)", "T1 sequence (Q9NYK1 27-1049)": "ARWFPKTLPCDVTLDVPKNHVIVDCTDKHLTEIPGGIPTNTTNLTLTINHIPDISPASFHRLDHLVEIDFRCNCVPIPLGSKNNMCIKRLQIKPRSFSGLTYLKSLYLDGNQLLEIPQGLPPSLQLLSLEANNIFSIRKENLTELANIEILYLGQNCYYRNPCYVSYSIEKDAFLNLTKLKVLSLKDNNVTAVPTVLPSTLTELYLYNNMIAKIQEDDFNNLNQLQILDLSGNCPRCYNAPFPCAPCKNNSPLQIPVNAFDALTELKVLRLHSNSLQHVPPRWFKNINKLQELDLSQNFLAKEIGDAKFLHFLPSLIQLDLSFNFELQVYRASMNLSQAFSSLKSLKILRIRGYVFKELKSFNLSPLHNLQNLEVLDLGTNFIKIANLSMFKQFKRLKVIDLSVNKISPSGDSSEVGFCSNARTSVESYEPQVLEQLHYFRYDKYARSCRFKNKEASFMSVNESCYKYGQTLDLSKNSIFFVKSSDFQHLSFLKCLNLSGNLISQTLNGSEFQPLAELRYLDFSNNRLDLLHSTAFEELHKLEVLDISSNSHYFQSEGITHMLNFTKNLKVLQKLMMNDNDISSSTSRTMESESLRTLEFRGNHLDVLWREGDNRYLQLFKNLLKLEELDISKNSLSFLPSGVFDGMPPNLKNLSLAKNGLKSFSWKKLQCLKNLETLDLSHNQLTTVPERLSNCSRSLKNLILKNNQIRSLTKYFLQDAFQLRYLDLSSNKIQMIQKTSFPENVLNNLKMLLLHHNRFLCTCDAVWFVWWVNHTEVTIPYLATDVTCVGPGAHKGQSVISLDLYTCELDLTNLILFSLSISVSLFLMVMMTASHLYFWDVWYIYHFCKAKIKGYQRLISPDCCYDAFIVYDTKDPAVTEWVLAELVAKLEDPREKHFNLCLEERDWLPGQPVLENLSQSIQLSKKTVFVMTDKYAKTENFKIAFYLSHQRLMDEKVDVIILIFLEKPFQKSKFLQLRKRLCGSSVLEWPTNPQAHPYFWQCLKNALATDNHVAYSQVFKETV", "assay": "HEK293-Blue-hTLR-7 cells assay (SEAP reporter, R848 stimulation)", "format": "cell-based", "details": "HEK293-Blue-hTLR7 cells, R848 ligand, 20 hrs incubation", "source_text": "A stable HEK293-Blue-hTLR-7 cell line was purchased from InvivoGen (Cat. #: hkb-htlr7, San Diego, Calif., USA). These cells were originally designed for studying the stimulation of human TLR7 by monitoring the activation of NF-κB. A SEAP (secreted embryonic alkaline phosphatase) reporter gene was placed under the control of the IFN-β minimal promoter fused to five NF-κB and AP-1-binding sites. The SEAP was induced by activating NF-κB and AP-1 via stimulating HEK-Blue hTLR7 cells with TLR7 ligands. Therefore the reporter expression was declined by TLR7 antagonist under the stimulation of a ligand, such as R848 (Resiquimod), for incubation of 20 hrs. The cell culture supernatant SEAP reporter activity was determined using QUANTI-Blue™ kit (Cat. #: rep-qb1, Invivogen, San Diego, Ca, USA) at a wavelength of 640 nm, a detection medium that turns purple or blue in the presence of alkaline phosphatase.\nHEK293-Blue-hTLR7 cells were incubated at a density of 250,000˜450,000 cells/mL in a volume of 170 μL in a 96-well plate in Dulbecco's Modified Eagle's medium (DMEM) containing 4.5 g/L glucose, 50 U/mL penicillin, […], […], 2 mM L-glutamine, 10% (v/v) heat-inactivated fetal bovine serum with addition of 20 μL test compound in a serial dilution in the presence of final DMSO at 1% and 10 μL of 20 uM R848 in above DMEM, perform incubation under 37° C. in a CO2 incubator for 20 hrs. Then 20 μL of the supernatant from each well was incubated with 180 μL Quanti-blue substrate solution at 37° C. for 2 hrs and the absorbance was read at 620˜655 nm using a spectrophotometer. The signalling pathway that TLR7 activation leads to downstream NF-κB activation has been widely accepted, and therefore similar reporter assay was modified for evaluating TLR7 antagonist.", "units": {"IC50": "nM"}, "values": [
      {"smiles": "C[C@@H]1CN(c2ccc(C#N)n3nccc23)C[C@H](CN2CC3CNCCC32)O1", "note": "(stereo partly drawn) [Example 52, 4-[(2S,6R)-2-(3,7-diazabicyclo[4.2.0]octan-7-ylmethyl)-6-methyl-morpholin-4-yl]pyrazolo[1,5-a]pyridine-7-carbonitrile]", "IC50": 92},
      {"smiles": "C[C@@H]1CN(c2ccc(C#N)n3nccc23)C[C@H](CN2CCC3(CCCN3)CC2)O1", "note": "[Example 53, 4-[(2S,6R)-2-(1,8-diazaspiro[4.5]decan-8-ylmethyl)-6-methyl-morpholin-4-yl]pyrazolo[1,5-a]pyridine-7-carbonitrile]", "IC50": 230},
      {"smiles": "C[C@@H]1CN(c2ccc(C#N)n3nccc23)C[C@H](CN2CCC(N3CCCC3)CC2)O1", "note": "[Example 54, 4-[(2R,6S)-2-methyl-6-[(4-pyrrolidin-1-yl-1-piperidyl)methyl]morpholin-4-yl]pyrazolo[1,5-a]pyridine-7-carbonitrile]", "IC50": 190},
      {"smiles": "C[C@@H]1CN(c2ccc(C#N)n3nccc23)C[C@H](CN2CCC23CNC3)O1", "note": "[Example 55, 4-[(2S,6R)-2-(1,6-diazaspiro[3.3]heptan-1-ylmethyl)-6-methyl-morpholin-4-yl]pyrazolo[1,5-a]pyridine-7-carbonitrile]", "IC50": 540},
      {"smiles": "C[C@@H]1CN(c2ccc(C#N)n3nccc23)C[C@H](CN2CC3CCNCC32)O1", "note": "(stereo partly drawn) [Example 56, 4-[(2S,6R)-2-(3,8-diazabicyclo[4.2.0]octan-8-ylmethyl)-6-methyl-morpholin-4-yl]pyrazolo[1,5-a]pyridine-7-carbonitrile]", "IC50": 270},
      {"smiles": "C[C@@H]1CN(c2ccc(C#N)n3nccc23)C[C@H](CN2C3CNCC2COC3)O1", "note": "[Example 57, 4-[(2R,6S)-2-methyl-6-(3-oxa-7,9-diazabicyclo[3.3.1]nonan-9-ylmethyl)morpholin-4-yl]pyrazolo[1,5-a]pyridine-7-carbonitrile]", "IC50": 73},
      {"smiles": "C[C@@H]1CN(c2ccc(C#N)n3nccc23)C[C@H](CN2C3COCC2CC(N)C3)O1", "note": "(stereo partly drawn) [Example 58, 4-[(2S,6R)-2-[(7-amino-3-oxa-9-azabicyclo[3.3.1]nonan-9-yl)methyl]-6-methyl-morpholin-4-yl]pyrazolo[1,5-a]pyridine-7-carbonitrile]", "IC50": 90},
      {"smiles": "C[C@@H]1CN(c2ccc(C#N)n3nccc23)C[C@H](CN2CCNCC2Cc2ccccc2)O1", "note": "(stereo partly drawn) [Example 59, 4-[(2S,6R)-2-[(2-benzylpiperazin-1-yl)methyl]-6-methyl-morpholin-4-yl]pyrazolo[1,5-a]pyridine-7-carbonitrile]", "IC50": 7},
      {"smiles": "C[C@@H]1CN(c2ccc(C#N)n3nccc23)C[C@H](CN2CCC3(CC2)CNCCO3)O1", "note": "[Example 60, 4-[(2R,6S)-2-methyl-6-(1-oxa-4,9-diazaspiro[5.5]undecan-9-ylmethyl)morpholin-4-yl]pyrazolo[1,5-a]pyridine-7-carbonitrile]", "IC50": 100},
      {"smiles": "C[C@@H]1CN(c2ccc(C#N)n3nccc23)C[C@H](CN2CCCC3CNCC32)O1", "note": "(stereo partly drawn) [Example 61, 4-[(2S,6R)-2-(2,3,4,4a,5,6,7,7a-octahydropyrrolo[3,4-b]pyridin-1-ylmethyl)-6-methyl-morpholin-4-yl]pyrazolo[1,5-a]pyridine-7-carbonitrile]", "IC50": 460},
      {"smiles": "C[C@@H]1CN(c2ccc(C#N)n3nccc23)C[C@H](CN2CC[C@@H]3CNCC32)O1", "note": "(stereo partly drawn) [Example 62, 4-[(2R,6S)-2-methyl-6-[[cis-(3aR,6aR)-3,3a,4,5,6,6a-hexahydro-2H-pyrrolo[3,4-b]pyrrol-1-yl]methyl]morpholin-4-yl]pyrazolo[1,5-a]pyridine-7-carbonitrile]", "IC50": 710},
      {"smiles": "C[C@@H]1CN(c2ccc(C#N)n3nccc23)C[C@H](CN2CCC[C@@H]3NCCC32)O1", "note": "(stereo partly drawn) [Example 63, 4-[(2R,6S)-2-methyl-6-[[cis-(3aS,7aS)-1,2,3,3a,5,6,7,7a-octahydropyrrolo[3,2-b]pyridin-4-yl]methyl]morpholin-4-yl]pyrazolo[1,5-a]pyridine-7-carbonitrile]", "IC50": 270},
      {"smiles": "C[C@@H]1CN(c2ccc(C#N)n3nccc23)C[C@H](CN2CCCC3NCCCC32)O1", "note": "(stereo partly drawn) [Example 64, 4-[(2S,6R)-2-(3,4,4a,5,6,7,8,8a-octahydro-2H-1,5-naphthyridin-1-ylmethyl)-6-methyl-morpholin-4-yl]pyrazolo[1,5-a]pyridine-7-carbonitrile]", "IC50": 250},
      {"smiles": "C[C@@H]1CN(c2ccc(C#N)n3nccc23)C[C@H](CN2C3CCCC2CC(N)C3)O1", "note": "(stereo partly drawn) [Example 65, Endo-4-[(2S,6R)-2-[(3-amino-9-azabicyclo[3.3.1]nonan-9-yl)methyl]-6-methyl-morpholin-4-yl]pyrazolo[1,5-a]pyridine-7-carbonitrile]", "IC50": 460},
      {"smiles": "C[C@@H]1CN(c2ccc(C#N)n3nccc23)C[C@H](CN2C3CCCC2CC(N)C3)O1", "note": "(stereo partly drawn) [Example 66, Exo-4-[(2S,6R)-2-[(3-amino-9-azabicyclo[3.3.1]nonan-9-yl)methyl]-6-methyl-morpholin-4-yl]pyrazolo[1,5-a]pyridine-7-carbonitrile]", "IC50": 490},
      {"smiles": "C[C@@H]1CN(c2ccc(C#N)n3ncc(F)c23)C[C@H](CN2CCCC3(CCNCC3)C2)O1", "note": "[Example 67, 4-[(2S,6R)-2-(2,9-diazaspiro[5.5]undecan-2-ylmethyl)-6-methyl-morpholin-4-yl]-3-fluoro-pyrazolo[1,5-a]pyridine-7-carbonitrile]", "IC50": 280},
      {"smiles": "C[C@@H]1CN(c2ccc(C#N)n3ncc(F)c23)C[C@H](CN2CCCC3(CCNC3)C2)O1", "note": "(stereo partly drawn) [Example 68, 3-fluoro-4-[(2S,6R)-2-(2,7-diazaspiro[4.5]decan-7-ylmethyl)-6-methyl-morpholin-4-yl]pyrazolo[1,5-a]pyridine-7-carbonitrile]", "IC50": 230},
      {"smiles": "C[C@@H]1CN(c2ccc(C#N)n3ncc(F)c23)C[C@H](CN2CCC3(CCCNC3)C2)O1", "note": "(stereo partly drawn) [Example 69, 3-fluoro-4-[(2S,6R)-2-(2,9-diazaspiro[4.5]decan-2-ylmethyl)-6-methyl-morpholin-4-yl]pyrazolo[1,5-a]pyridine-7-carbonitrile]", "IC50": 130},
      {"smiles": "C[C@@H]1CN(c2ccc(C#N)n3nccc23)C[C@H](CN2CCC3NCC3C2)O1", "note": "(stereo partly drawn) [Example 70, 4-[(2S,6R)-2-(3,7-diazabicyclo[4.2.0]octan-3-ylmethyl)-6-methyl-morpholin-4-yl]pyrazolo[1,5-a]pyridine-7-carbonitrile]", "IC50": 230},
      {"smiles": "C[C@@H]1CN(c2ccc(C#N)n3nccc23)C[C@H](CN2CCOC3(CCNCC3)C2)O1", "note": "[Example 71, 4-[(2R,6S)-2-methyl-6-(1-oxa-4,9-diazaspiro[5.5]undecan-4-ylmethyl)morpholin-4-yl]pyrazolo[1,5-a]pyridine-7-carbonitrile]", "IC50": 450},
      {"smiles": "C[C@@H]1CN(c2ccc(C#N)n3nccc23)C[C@H](CN2CCC(N)(c3ccccc3)CC2)O1", "note": "[Example 73, 4-[(2S,6R)-2-[(4-amino-4-phenyl-1-piperidyl)methyl]-6-methyl-morpholin-4-yl]pyrazolo[1,5-a]pyridine-7-carbonitrile]", "IC50": 150},
      {"smiles": "C[C@@H]1CN(c2ccc(C#N)n3nccc23)C[C@H](CN2CC[C@H](N)[C@H](C)C2)O1", "note": "[Example 74, 4-[(2S,6R)-2-[[(3R,4S)-4-amino-3-methyl-1-piperidyl]methyl]-6-methyl-morpholin-4-yl]pyrazolo[1,5-a]pyridine-7-carbonitrile]", "IC50": 89},
      {"smiles": "C[C@@H]1CN(c2ccc(C#N)n3nccc23)C[C@H](CN2CCC3(CN(C)CCO3)C2)O1", "note": "(stereo partly drawn) [Example 76, 4-[(2R,6S)-2-methyl-6-[(9-methyl-6-oxa-2,9-diazaspiro[4.5]decan-2-yl)methyl]morpholin-4-yl]pyrazolo[1,5-a]pyridine-7-carbonitrile]", "IC50": 920}
    ]}
  ]
}
